Data from US20210186970A1, “SELECTIVE CALCIUM CHANNEL ANTAGONISTS” (Northwestern University, priority 2011, published 2021).
Like-named read-outs stand apart in the source and are kept apart here.

Assays:
[1] = molecular target: Cav1.2 L-type Ca channels (Oryctolagus cuniculus, UniProt P15381); assay: FLIPR Fluo-8 calcium assay, Cav1.2 channel inhibition in HEK293 cells
[2] = molecular target: T1, Cav1.3 L-type Ca channels (Rattus norvegicus, UniProt P27732); assay: FLIPR Fluo-8 calcium assay, Cav1.3 channel inhibition in HEK293 cells; type: cell-based; settings: for Selectivity: ratio of IC50 Cav1.2 to Cav1.3
T1 construct: expressed in transfected cells; host or cells: HEK293

[3] = IC50 (μM) Cav1.2, Table 4, 12 concentration points (0.1 nM~100 μM) in duplicate
[4] = IC50 (μM) Cav1.2, third library, FLIPR, HEK293, value (±SD)
[5] = Table 4, 12 concentration points (0.1 nM~100 μM) in duplicate, read-out: IC50 (μM) Cav1.3
[6] = third library, FLIPR, HEK293, value (±SD), read-out: IC50 (μM) Cav1.3
[7] = IC50 (μM) Cav1.3, third library, FLIPR, HEK293, value (±SD)
[8] = IC50 (μM) CaV1.2, first library, FLIPR, HEK293, value (±SD)
[9] = IC50 (μM) CaV1.3, first library, FLIPR, HEK293, value (±SD)

T1 sequence (P27732 whole entry): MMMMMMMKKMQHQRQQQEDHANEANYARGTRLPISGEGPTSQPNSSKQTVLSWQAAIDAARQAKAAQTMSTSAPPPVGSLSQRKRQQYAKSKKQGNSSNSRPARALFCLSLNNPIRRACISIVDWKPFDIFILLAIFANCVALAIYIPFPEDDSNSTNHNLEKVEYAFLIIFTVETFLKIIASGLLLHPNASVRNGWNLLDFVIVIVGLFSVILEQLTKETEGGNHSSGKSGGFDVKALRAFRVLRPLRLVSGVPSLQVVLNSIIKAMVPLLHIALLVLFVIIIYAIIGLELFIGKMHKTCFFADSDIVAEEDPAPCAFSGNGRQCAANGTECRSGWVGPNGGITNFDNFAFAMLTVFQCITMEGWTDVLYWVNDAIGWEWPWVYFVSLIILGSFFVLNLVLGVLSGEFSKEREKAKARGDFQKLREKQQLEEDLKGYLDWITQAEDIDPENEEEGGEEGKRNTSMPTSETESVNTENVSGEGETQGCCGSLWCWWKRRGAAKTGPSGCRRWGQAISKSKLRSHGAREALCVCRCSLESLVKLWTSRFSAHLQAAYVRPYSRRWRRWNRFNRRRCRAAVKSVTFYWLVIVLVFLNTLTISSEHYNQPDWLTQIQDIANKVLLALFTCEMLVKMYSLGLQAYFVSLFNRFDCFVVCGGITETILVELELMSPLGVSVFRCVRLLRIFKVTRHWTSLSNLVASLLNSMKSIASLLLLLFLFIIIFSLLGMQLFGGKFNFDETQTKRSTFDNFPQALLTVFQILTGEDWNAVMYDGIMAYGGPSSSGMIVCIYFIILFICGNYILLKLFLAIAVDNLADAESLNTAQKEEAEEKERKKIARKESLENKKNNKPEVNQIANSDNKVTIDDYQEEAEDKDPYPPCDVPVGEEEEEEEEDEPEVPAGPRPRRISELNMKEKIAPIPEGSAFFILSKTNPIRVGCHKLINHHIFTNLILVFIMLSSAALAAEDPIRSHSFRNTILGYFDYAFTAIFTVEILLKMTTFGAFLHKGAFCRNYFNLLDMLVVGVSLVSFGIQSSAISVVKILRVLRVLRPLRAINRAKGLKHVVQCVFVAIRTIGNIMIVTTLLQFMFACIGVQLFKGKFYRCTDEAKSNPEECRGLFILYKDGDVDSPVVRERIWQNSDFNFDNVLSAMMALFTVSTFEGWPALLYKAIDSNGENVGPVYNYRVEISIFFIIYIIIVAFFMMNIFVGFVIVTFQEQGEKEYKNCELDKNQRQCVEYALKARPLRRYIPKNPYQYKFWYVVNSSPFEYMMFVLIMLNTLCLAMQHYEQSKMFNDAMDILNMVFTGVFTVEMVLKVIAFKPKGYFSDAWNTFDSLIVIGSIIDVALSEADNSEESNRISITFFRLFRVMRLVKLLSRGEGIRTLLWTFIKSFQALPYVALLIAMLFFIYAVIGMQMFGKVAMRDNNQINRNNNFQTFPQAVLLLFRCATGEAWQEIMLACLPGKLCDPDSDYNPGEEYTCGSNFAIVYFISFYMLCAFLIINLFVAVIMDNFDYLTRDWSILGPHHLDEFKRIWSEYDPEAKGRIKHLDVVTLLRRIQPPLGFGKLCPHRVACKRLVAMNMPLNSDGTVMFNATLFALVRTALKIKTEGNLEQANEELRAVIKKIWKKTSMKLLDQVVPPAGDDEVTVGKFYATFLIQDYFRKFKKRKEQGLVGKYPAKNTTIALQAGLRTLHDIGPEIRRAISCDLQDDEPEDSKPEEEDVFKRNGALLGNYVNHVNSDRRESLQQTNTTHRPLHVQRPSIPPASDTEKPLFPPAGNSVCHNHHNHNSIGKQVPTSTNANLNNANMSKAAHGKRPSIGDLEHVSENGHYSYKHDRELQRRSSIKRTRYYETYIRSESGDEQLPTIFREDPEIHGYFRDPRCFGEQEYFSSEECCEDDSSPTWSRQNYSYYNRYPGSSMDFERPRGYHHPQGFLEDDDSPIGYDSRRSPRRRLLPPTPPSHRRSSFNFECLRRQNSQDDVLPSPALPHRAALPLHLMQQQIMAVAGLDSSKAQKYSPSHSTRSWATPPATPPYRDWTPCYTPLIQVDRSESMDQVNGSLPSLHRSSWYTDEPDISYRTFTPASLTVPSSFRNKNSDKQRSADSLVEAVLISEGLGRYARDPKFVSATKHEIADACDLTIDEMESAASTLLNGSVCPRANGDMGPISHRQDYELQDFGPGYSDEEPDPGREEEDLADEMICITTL
T1 sequence (P54284 whole entry partner): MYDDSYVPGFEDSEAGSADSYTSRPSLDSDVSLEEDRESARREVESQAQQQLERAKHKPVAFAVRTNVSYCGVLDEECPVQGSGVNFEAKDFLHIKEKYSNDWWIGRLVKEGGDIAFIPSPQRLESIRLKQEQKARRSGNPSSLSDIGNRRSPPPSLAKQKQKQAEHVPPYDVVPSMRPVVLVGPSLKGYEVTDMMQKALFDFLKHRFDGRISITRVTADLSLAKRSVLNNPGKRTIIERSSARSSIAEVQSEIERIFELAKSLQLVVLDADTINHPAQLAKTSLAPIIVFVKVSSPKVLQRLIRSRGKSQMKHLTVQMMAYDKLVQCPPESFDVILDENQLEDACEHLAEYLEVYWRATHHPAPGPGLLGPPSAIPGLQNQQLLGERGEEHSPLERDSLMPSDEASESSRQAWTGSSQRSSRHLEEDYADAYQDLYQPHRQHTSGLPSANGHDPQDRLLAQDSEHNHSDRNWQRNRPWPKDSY
T1 sequence (P54289 25-956 partner limits assumed): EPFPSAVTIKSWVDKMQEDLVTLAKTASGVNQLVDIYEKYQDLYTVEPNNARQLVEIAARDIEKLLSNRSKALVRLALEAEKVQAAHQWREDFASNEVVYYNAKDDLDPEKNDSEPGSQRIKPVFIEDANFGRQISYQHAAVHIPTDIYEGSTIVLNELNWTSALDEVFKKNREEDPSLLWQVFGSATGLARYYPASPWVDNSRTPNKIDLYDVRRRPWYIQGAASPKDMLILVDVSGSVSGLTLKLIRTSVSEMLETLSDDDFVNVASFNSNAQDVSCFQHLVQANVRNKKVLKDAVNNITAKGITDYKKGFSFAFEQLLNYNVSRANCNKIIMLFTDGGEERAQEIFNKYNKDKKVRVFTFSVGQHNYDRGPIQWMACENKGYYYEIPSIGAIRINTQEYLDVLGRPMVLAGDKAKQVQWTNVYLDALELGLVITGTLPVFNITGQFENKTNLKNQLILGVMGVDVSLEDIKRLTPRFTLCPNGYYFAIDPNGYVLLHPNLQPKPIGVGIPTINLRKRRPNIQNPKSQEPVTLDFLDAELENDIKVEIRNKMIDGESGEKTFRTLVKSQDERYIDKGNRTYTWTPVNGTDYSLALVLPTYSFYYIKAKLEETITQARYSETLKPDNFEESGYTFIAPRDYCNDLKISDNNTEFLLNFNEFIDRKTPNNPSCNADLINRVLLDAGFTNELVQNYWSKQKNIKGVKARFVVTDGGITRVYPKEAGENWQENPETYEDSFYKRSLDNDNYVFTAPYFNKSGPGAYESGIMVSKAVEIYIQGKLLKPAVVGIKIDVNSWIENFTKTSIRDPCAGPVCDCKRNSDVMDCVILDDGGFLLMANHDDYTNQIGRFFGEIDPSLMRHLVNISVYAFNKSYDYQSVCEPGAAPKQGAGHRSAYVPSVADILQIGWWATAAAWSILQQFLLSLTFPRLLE
T1 sequence (P54289 957-1103 partner limits assumed): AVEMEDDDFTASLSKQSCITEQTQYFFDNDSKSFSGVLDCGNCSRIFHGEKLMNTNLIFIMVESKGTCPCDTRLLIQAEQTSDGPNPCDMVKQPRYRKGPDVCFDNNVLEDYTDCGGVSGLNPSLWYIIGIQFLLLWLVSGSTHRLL

SMILES | IC50 [1, 8] [µM] | IC50 [2, 9] [µM] | Selectivity ([2]; first library) | other results
O=C1CC(=O)N([C@@H]2C[C@@H]3CC[C@H]2C3)C(=O)N1CCc1cccc(Cl)c1 (racemic) [Compound 9, N-(3-chlorophenethyl)-N′-(+)-endo-norbornyl-pyrimidine-2,4,6-(1H,3H,5H)-trione] |  |  |  | IC50 [1, 3]: 20.1 µM; IC50 [1, 4]: 20.1 µM; IC50 [2, 5]: 0.8 µM; IC50 ([2]; read-out: IC50 with Cav1.3): 0.8 µM; IC50 [2, 6]: 0.8 µM
O=C1CC(=O)N(C2CC3CCC2C3)C(=O)N1CCc1ccc(Cl)cc1 (racemic) [Compound 10, N-(4-chlorophenethyl)-N′-(+)-endo-norbornyl-pyrimidine-2,4,6-(1H,3H,5H)-trione] |  |  |  | IC50 [1, 3]: 13.5 µM; IC50 [1, 4]: 13.5 µM; IC50 [2, 5]: 0.6 µM; IC50 ([2]; read-out: IC50 with Cav1.3): 0.6 µM; IC50 [2, 6]: 0.6 µM
CC(Cc1ccccc1)N1C(=O)CC(=O)N(C2CCCC2)C1=O (racemic) [Compound 95] |  |  |  | IC50 [1, 4]: 16 µM; IC50 [2, 7]: 0.7 µM; Selectivity ([2]; third library): 23.0
CC(CN1C(=O)CC(=O)N(C2CCCC2)C1=O)c1ccccc1 (racemic) [Compound 96] |  |  |  | IC50 [1, 4]: 16.9 µM; IC50 [2, 7]: 1 µM; Selectivity ([2]; third library): 17.6
O=C1CC(=O)N([C@H]2C[C@@H]3CC[C@H]2C3)C(=O)N1CCc1cccc(Cl)c1 (racemic) [Compound 112] |  |  |  | IC50 [1, 4]: 6.3 µM; IC50 [2, 6]: 1.9 µM
O=C1CC(=O)N(CCc2ccc(Cl)cc2)C(=O)N1CCc1ccc(Cl)cc1 [Compound 11] | 2.1 | 1.8 | 1.2 | 
O=C1CC(=O)N(CCc2cccc(Cl)c2)C(=O)N1CCc1ccc(Cl)cc1 [Compound 12] | 4.4 | 1.9 | 2.3 | 
O=C1CC(=O)N(CCc2ccc(Cl)cc2Cl)C(=O)N1CCc1ccc(Cl)cc1 [Compound 13] | 2.8 | 1.8 | 1.5 | 
O=C1CC(=O)N(CCc2ccc(Cl)c(Cl)c2)C(=O)N1CCc1ccc(Cl)cc1 [Compound 14] | 1.3 | 1.9 | 0.7 | 
O=C1CC(=O)N(CCc2c(Cl)cccc2Cl)C(=O)N1CCc1ccc(Cl)cc1 [Compound 15] | 1.9 | 2.7 | 0.7 | 
O=C1CC(=O)N(CCc2ccc(Br)cc2)C(=O)N1CCc1ccc(Cl)cc1 [Compound 16] | 2.1 | 1.6 | 1.3 | 
Cc1ccc(CCN2C(=O)CC(=O)N(CCc3ccc(Cl)cc3)C2=O)cc1 [Compound 17] | 7.1 | 1.1 | 6.7 | 
O=C1CC(=O)N(CCc2ccc(Cl)cc2)C(=O)N1CCc1ccc(F)cc1 [Compound 18] | 3.3 | 1.1 | 3.1 | 
O=C1CC(=O)N(CCc2cccc(F)c2)C(=O)N1CCc1ccc(Cl)cc1 [Compound 19] | 2.8 | 1.9 | 1.5 | 
O=C1CC(=O)N(CCc2cccc(C(F)(F)F)c2)C(=O)N1CCc1ccc(Cl)cc1 [Compound 20] | 2.8 | 0.4 | 6.2 | 
CC(CN1C(=O)CC(=O)N(CCc2ccc(Cl)cc2)C1=O)c1ccccc1 (stereo not drawn) [Compound 21] | 6.2 | 1.3 | 5.0 | 
O=C1CC(=O)N(Cc2cccc([N+](=O)[O-])c2)C(=O)N1CCc1ccc(Cl)cc1 [Compound 22] | 9.5 | 21.2 | 0.4 | 
O=C1CC(=O)N(CCc2ccc([N+](=O)[O-])cc2)C(=O)N1CCc1ccc(Cl)cc1 [Compound 23] |  |  | 0.8 | IC50 [1]: 2.7 µM; IC50 ([2]; first library, FLIPR, HEK293, value (±SD), read-out: IC50 (μM) CaV1.3): 3.4 µM
O=C1CC(=O)N(CCc2cccc([N+](=O)[O-])c2)C(=O)N1CCc1ccc(Cl)cc1 [Compound 24] | 2.6 | 2.7 | 1.0 | 
O=C1CC(=O)N(Cc2ccc(Cl)cc2)C(=O)N1CCc1ccc(Cl)cc1 [Compound 25] | 1.9 | 2.1 | 0.9 | 
O=C1CC(=O)N(CCc2ccc(Cl)cc2)C(=O)N1CCCCc1ccccc1 [Compound 26] | 0.8 | 0.9 | 0.9 | 

SMILES | IC50 [1, 8] [µM] | IC50 [2, 9] [µM] | Selectivity ([2]; first library) | other results
O=C1CC(=O)N(CCc2ccc(Cl)cc2)C(=O)N1CCCc1ccccc1 [Compound 27] | 2.1 | 1.1 | 1.9 | 
CCCCCCCCN1C(=O)CC(=O)N(CCc2ccc(Cl)cc2)C1=O [Compound 28] | 2.8 | 1.5 | 1.9 | 
O=C1CC(=O)N(C2CCCC2)C(=O)N1CCc1ccc(Cl)cc1 [Compound 29] | 22.4 | 1.4 | 16.4 | 
O=C1CC(=O)N(C2CCCc3ccccc32)C(=O)N1CCc1ccc(Cl)cc1 (stereo not drawn) [Compound 30] | 12.8 | 5.6 | 2.3 | 
O=C1CC(=O)N(C2Cc3ccccc3C2)C(=O)N1CCc1ccc(Cl)cc1 [Compound 31] | 3 | 1.3 | 2.2 | 
O=C1CC(=O)N(C2CCc3ccccc32)C(=O)N1CCc1ccc(Cl)cc1 (stereo not drawn) [Compound 32] | 14.5 | 8.4 | 1.7 | 
O=C1CC(=O)N(CCc2ccc3ccccc3c2)C(=O)N1CCc1ccc(Cl)cc1 [Compound 33] |  | 1.1 | 1.2 | IC50 [1]: 1.4 µM
COC(=O)CN1C(=O)CC(=O)N(CCc2ccc(Cl)cc2)C1=O [Compound 34] |  | 108 |  | 
COC(=O)[C@H](C)N1C(=O)CC(=O)N(CCc2ccc(Cl)cc2)C1=O [Compound 35] | 88.2 | 77.7 | 1.1 | 
COC(=O)[C@H](CC(C)C)N1C(=O)CC(=O)N(CCc2ccc(Cl)cc2)C1=O [Compound 36] | 17.1 | 20.6 | 0.8 | 
C=CCOC(=O)[C@H](Cc1ccccc1)N1C(=O)CC(=O)N(CCc2ccc(Cl)cc2)C1=O [Compound 37] | 9.1 | 9.4 | 1.0 | 
O=C1CC(=O)N(CCc2cccc(Cl)c2)C(=O)N1CCCCc1ccccc1 [Compound 38] | 6.2 | 1.3 | 4.9 | 
O=C1CC(=O)N(CCc2ccc(Cl)c(Cl)c2)C(=O)N1CCCCc1ccccc1 [Compound 39] | 3.1 | 1.3 | 2.3 | 
O=C1CC(=O)N(CCc2ccc(Br)cc2)C(=O)N1CCCCc1ccccc1 [Compound 40] | 2 | 1.1 | 1.9 | 
Cc1ccc(CCN2C(=O)CC(=O)N(CCCCc3ccccc3)C2=O)cc1 [Compound 41] | 15.5 | 1.1 | 14.1 | 
O=C1CC(=O)N(CCc2cccc(F)c2)C(=O)N1CCCCc1ccccc1 [Compound 42] | 5.3 | 1.6 | 3.3 | 
O=C1CC(=O)N(CCc2cccc(C(F)(F)F)c2)C(=O)N1CCCCc1ccccc1 [Compound 43] | 1.1 | 0.5 | 2.3 | 
CC(CN1C(=O)CC(=O)N(CCCCc2ccccc2)C1=O)c1ccccc1 (stereo not drawn) [Compound 44] | 15.8 | 2.1 | 7.7 | 
CN1C(=O)CC(=O)N(Cc2cccc([N+](=O)[O-])c2)C1=O [Compound 69] |  |  |  | IC50 [1]: 167 µM
O=C1CC(=O)N(CCc2cccc([N+](=O)[O-])c2)C(=O)N1CCc1cccc([N+](=O)[O-])c1 [Compound 70] |  |  |  | IC50 [1]: 173 µM
